For 20 molecules, T/C results are on record in PubChem BioAssay AID248 (DTP/NCI, 2004).

Where “and” joins values, the source holds several entries; their conditions need not be identical. Equal entries are not always repeated. Toxic doses and inconclusive results are not listed.

In this assay the test system is L1210 leukemia ip in BDF1 mice, survival T/C. Nature of the assay: NCI In Vivo Anticancer Drug Screen. Data for tumor model L1210 Leukemia (intraperitoneal) in B6D2F1 (BDF1) mice. To be noted: endpoint: mean survival time, higher = longer survival. The gist of the method: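 In this screen, tumor-bearing mice given compound are compared to those given vehicle, and their survival values are reported as a treated-to-control quotient.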

Setting [1] is: dose: 100.0 mg/kg/injection, schedule: Q04DX003 (ip), vehicle: saline.
The mark [2] stands for this setting: dose: 200.0 mg/kg/injection, schedule: Q04DX003 (ip), vehicle: saline.
Where [3] appears, read: dose: 100.0 mg/kg/injection, schedule: Q01DX009 (ip), vehicle: Klucel (hydroxypropylcellulose) (HPC).
The mark [4] stands for this setting: dose: 200.0 mg/kg/injection, schedule: Q01DX009 (ip), vehicle: Klucel (hydroxypropylcellulose) (HPC).
Setting [5] is: dose: 200.0 mg/kg/injection, schedule: Q04DX002 (ip), vehicle: Klucel (hydroxypropylcellulose) (HPC).
Where [6] appears, read: dose: 400.0 mg/kg/injection, schedule: Q01DX009 (ip), vehicle: Klucel (hydroxypropylcellulose) (HPC).
Where [7] appears, read: dose: 400.0 mg/kg/injection, schedule: Q04DX002 (ip), vehicle: Klucel (hydroxypropylcellulose) (HPC).
Where [8] appears, read: dose: 50.0 mg/kg/injection, schedule: Q01DX009 (ip), vehicle: carboxymethylcellulose (CMC).
Where [9] appears, read: dose: 100.0 mg/kg/injection, schedule: Q04DX003 (ip), vehicle: carboxymethylcellulose (CMC).
Where [10] appears, read: dose: 100.0 mg/kg/injection, schedule: Q04DX003 (ip), vehicle: saline with Tween-80.
Where [11] appears, read: dose: 100.0 mg/kg/injection, schedule: Q04DX002 (ip), vehicle: saline.
The mark [12] stands for this setting: dose: 200.0 mg/kg/injection, schedule: Q04DX002 (ip), vehicle: saline.
The mark [13] stands for this setting: dose: 100.0 mg/kg/injection, schedule: Q01DX001 (ip), vehicle: saline.
The mark [14] stands for this setting: dose: 200.0 mg/kg/injection, schedule: Q01DX001 (ip), vehicle: saline.
[15] abbreviates: dose: 400.0 mg/kg/injection, schedule: Q01DX001 (ip), vehicle: saline.
The mark [16] stands for this setting: dose: 100.0 mg/kg/injection, schedule: Q04DX002 (ip), vehicle: saline with Tween-80.
Where [17] appears, read: dose: 200.0 mg/kg/injection, schedule: Q04DX002 (ip), vehicle: saline with Tween-80.
Where [18] appears, read: dose: 25.0 mg/kg/injection, schedule: Q01DX009 (ip), vehicle: Klucel (hydroxypropylcellulose) (HPC).
Setting [19] is: dose: 50.0 mg/kg/injection, schedule: Q01DX009 (ip), vehicle: Klucel (hydroxypropylcellulose) (HPC).

On to `O=C(Nc1ccc(C(=O)Nc2cccc(C3=NCCN3)c2)cc1)Nc1ccc(C2=NCCN2)cc1`, for which the T/C (dose: 15.0 mg/kg/injection, schedule: Q01DX Z (ip), vehicle: saline) is 202 % of control; the T/C (dose: 30.0 mg/kg/injection, schedule: Q01DX Z (ip), vehicle: saline) is 183 % of control; the T/C (dose: 60.0 mg/kg/injection, schedule: Q01DX Z (ip), vehicle: saline) is 122 % of control; the T/C (dose: 120.0 mg/kg/injection, schedule: Q01DX Z (ip), vehicle: saline) is 100 % of control.

Consider `CC(=O)OCc1cc2cc(O)ccc2nc1C`, for which the T/C is 110 % of control under setting [1]; 110 % of control under setting [2]; 116 % of control (dose: 400.0 mg/kg/injection, schedule: Q04DX003 (ip), vehicle: saline).

For the molecule `Nc1nc(N)nc(-c2ccccc2)n1`, the T/C (dose: 50.0 mg/kg/injection, schedule: Q01DX009 (ip), vehicle: saline with Tween-80) was 94 % of control; the T/C under setting [3] was 111 % of control; the T/C (dose: 100.0 mg/kg/injection, schedule: Q01DX009 (ip), vehicle: saline with Tween-80) is 94 % of control; the T/C (dose: 100.0 mg/kg/injection, schedule: Q04DX002 (ip), vehicle: Klucel (hydroxypropylcellulose) (HPC)) is 114 % of control; the T/C under setting [4] was 111 % of control; the T/C (dose: 200.0 mg/kg/injection, schedule: Q01DX009 (ip), vehicle: saline with Tween-80) is 97 % of control. Besides, the T/C is 107 % of control under setting [5], 93 % of control under setting [6] and 88 % of control under setting [7].

Consider `CC(=O)COc1cccc2ccccc12`, for which the T/C reads like this: (dose: 100.0 mg/kg/injection, schedule: Q01DX009 (ip), vehicle: gum acacia) 100 % of control; (dose: 200.0 mg/kg/injection, schedule: Q01DX009 (ip), vehicle: gum acacia) 99 % of control; (dose: 400.0 mg/kg/injection, schedule: Q01DX009 (ip), vehicle: gum acacia) 97 % of control.

With `O=C(CCl)Nc1cccc(S(=O)(=O)F)c1`, the T/C is 93 % of control (dose: 12.5 mg/kg/injection, schedule: Q01DX009 (ip), vehicle: carboxymethylcellulose (CMC)); 88 % of control (dose: 25.0 mg/kg/injection, schedule: Q01DX009 (ip), vehicle: carboxymethylcellulose (CMC)); 87 % of control under setting [8]; 103 % of control under setting [9].

Regarding `O=C(/C(=C\c1ccccc1)N1CCOCC1)c1ccc(Cl)cc1`, under setting [10], the T/C is 92 % of control.

As to `CN(C)C(=O)NCc1ccco1`, the T/C is 97 % of control (dose: 12.5 mg/kg/injection, schedule: Q04DX003 (ip), vehicle: saline); 95 % of control (dose: 25.0 mg/kg/injection, schedule: Q04DX003 (ip), vehicle: saline); 101 % of control (dose: 50.0 mg/kg/injection, schedule: Q04DX003 (ip), vehicle: saline).

`O=C(O)/C(I)=C(\I)C(=O)O`: the T/C is 106 % of control under setting [11] and 117 % of control under setting [12].

For the molecule `CC(C)C1CC(C)(C)c2cc(O)ccc2O1` (stereo not given), the T/C is 101 % of control (dose: 100.0 mg/kg/injection, schedule: Q04DX003 (ip), vehicle: Klucel (hydroxypropylcellulose) (HPC)); 105 % of control (dose: 200.0 mg/kg/injection, schedule: Q04DX003 (ip), vehicle: Klucel (hydroxypropylcellulose) (HPC)); 100 % of control (dose: 400.0 mg/kg/injection, schedule: Q04DX003 (ip), vehicle: Klucel (hydroxypropylcellulose) (HPC)).

As for `CN1C(=O)NC(C)(C)C1=O`, the T/C by setting is: under setting [13], 99 % of control; under setting [14], 97 % of control; under setting [15], 94 % of control.

For `CC(=O)OCC1OC(N2C(=O)/C(=C(/C)c3ccco3)SC2=S)C(OC(C)=O)C(OC(C)=O)C1OC(C)=O` (stereo not given), the T/C reads like this: (dose: 25.0 mg/kg/injection, schedule: Q01DX005 (ip), vehicle: other) 103 % of control; (dose: 50.0 mg/kg/injection, schedule: Q01DX005 (ip), vehicle: other) 98 % of control; (dose: 100.0 mg/kg/injection, schedule: Q01DX005 (ip), vehicle: other) 98 % of control; (dose: 200.0 mg/kg/injection, schedule: Q01DX005 (ip), vehicle: other) 98 % of control; (dose: 400.0 mg/kg/injection, schedule: Q01DX005 (ip), vehicle: other) 101 % of control.

As to `CCCCC(=O)N1CCCCCC1`, the T/C runs as follows: under setting [16], 105 % of control; under setting [17], 87 % of control.

For the molecule `C=CCCCCCCCCC(=O)NCC1CC1`, the T/C reads like this: under setting [10], 98 % of control; (dose: 200.0 mg/kg/injection, schedule: Q04DX003 (ip), vehicle: saline with Tween-80) 92 % of control; (dose: 400.0 mg/kg/injection, schedule: Q04DX003 (ip), vehicle: saline with Tween-80) 88 % of control.

As to `CC(=O)Oc1cc(-c2ccc3c(c2)C2(C)c4cc(OC(C)=O)c5ccccc5c4OC2(C)N3C)c(OC(C)=O)c2ccccc12` (stereo not given), the T/C by setting is: (dose: 100.0 mg/kg/injection, schedule: Q01DX001 (ip), vehicle: other) 92 % of control; (dose: 200.0 mg/kg/injection, schedule: Q01DX001 (ip), vehicle: other) 88 % of control; (dose: 400.0 mg/kg/injection, schedule: Q01DX001 (ip), vehicle: other) 92 % of control.

For the molecule `O=C(NCc1ccco1)c1cccc(F)c1`, the T/C under setting [18] was 93 % of control; the T/C under setting [19] was 95 % of control; the T/C under setting [3] was 104 % of control and 109 % of control.

Regarding `CCNCCNc1ccc(CO)c2sc3cc(Cl)ccc3c(=O)c12`, the T/C under setting [18] was 99 % of control and the T/C under setting [19] was 100 % of control.

Regarding `COC(=O)c1ccccc1Cn1ccnc1`, the T/C is, setting by setting: under setting [13], 108 % of control; (dose: 100.0 mg/kg/injection, schedule: Q01DX009 (ip), vehicle: saline) 102 % of control and 92 % of control; under setting [11], 96 % of control and 103 % of control; under setting [1], 115 % of control; under setting [14], 101 % of control; (dose: 200.0 mg/kg/injection, schedule: Q01DX009 (ip), vehicle: saline) 94 % of control and 97 % of control. In addition, the T/C is 103 % of control and 105 % of control under setting [12]; 101 % of control under setting [2]; 97 % of control under setting [15]; 100 % of control (dose: 400.0 mg/kg/injection, schedule: Q04DX002 (ip), vehicle: saline).

As for `C(=N\Nc1nc2ccccc2s1)/c1ccnc2ccccc12`, the T/C reads like this: under setting [3], 102 % of control; under setting [4], 101 % of control; under setting [6], 96 % of control.

Take `Cc1cccc(NCC(=O)NN)c1C`: the T/C runs as follows: under setting [8], 102 % of control and 104 % of control; (dose: 50.0 mg/kg/injection, schedule: Q04DX002 (ip), vehicle: carboxymethylcellulose (CMC)) 96 % of control and 101 % of control; (dose: 50.0 mg/kg/injection, schedule: Q04DX003 (ip), vehicle: carboxymethylcellulose (CMC)) 102 % of control; (dose: 100.0 mg/kg/injection, schedule: Q01DX009 (ip), vehicle: carboxymethylcellulose (CMC)) 104 % of control and 106 % of control; (dose: 100.0 mg/kg/injection, schedule: Q04DX002 (ip), vehicle: carboxymethylcellulose (CMC)) 101 % of control and 103 % of control; under setting [9], 102 % of control. The T/C is 97 % of control (dose: 200.0 mg/kg/injection, schedule: Q01DX009 (ip), vehicle: carboxymethylcellulose (CMC)); 92 % of control under setting [5]; 104 % of control and 107 % of control (dose: 200.0 mg/kg/injection, schedule: Q04DX002 (ip), vehicle: carboxymethylcellulose (CMC)); 90 % of control (dose: 200.0 mg/kg/injection, schedule: Q04DX003 (ip), vehicle: carboxymethylcellulose (CMC)); 113 % of control under setting [7].

For `NC(=O)COc1c(Cl)cc(Cl)cc1Cl`, the T/C by setting is: under setting [16], 103 % of control; under setting [17], 103 % of control; (dose: 400.0 mg/kg/injection, schedule: Q04DX002 (ip), vehicle: saline with Tween-80) 100 % of control.
